“And” between values parts separate entries of the source, which are not always exact repeats. Equal entries are not always repeated.
What was measured:
Format in all cases: in vivo
[1] = test system: Alopecurus myosuroides (ALOMY); assay: Pre-emergence biological efficacy (percentage damage); details: evaluated after 13 days, 100=total damage, 0=no damage; for Percentage damage ALOMY, pre-emergence / pest or weed control at 1000 g/ha: dose 1,000 g/ha
Protocol: (§1) Seeds of Alopecurus myosuroides (ALOMY), Setaria faberi (SETFA), Echinochloa crus-galli (ECHCG), Solanum nigrum (SOLNI), Amaranthus retoflexus (AMARE) and Ipomea hederaceae (IPOHE) were sown in standard soil in pots. After cultivation for one day under controlled conditions in a glasshouse (at 24/16° C., day/night; 14 hours light; 65% humidity), the plants were sprayed with an aqueous spray solution derived from the formulation of the technical active ingredient in acetone/water (50:50) solution containing 0.5% Tween 20 (polyoxyethylene sorbitan monolaurate, CAS RN 9005-64-5) to give a final dose of 250 or 1000 g/ha of test compound. The test plants were then grown under controlled conditions in the glasshouse (at 24/16° C., day/night; 14 hours light; 65% humidity) and watered twice daily. After 13 days the test was evaluated (100=total damage to plant; 0=no damage to plant).

[2] = test system: Amaranthus retoflexus (AMARE); assay: as above; details: evaluated after 13 days, 100=total damage, 0=no damage; for Percentage damage AMARE, pre-emergence / pest or weed control at 1000 g/ha: dose 1,000 g/ha
Protocol: as §1

[3] = test system: Echinochloa crus-galli (ECHCG); assay: as above; details: evaluated after 13 days, 100=total damage, 0=no damage; for Percentage damage ECHCG, pre-emergence / pest or weed control at 1000 g/ha: dose 1,000 g/ha
Protocol: as §1

[4] = test system: Ipomea hederaceae (IPOHE); assay: as above; details: evaluated after 13 days, 100=total damage, 0=no damage; for Percentage damage IPOHE, pre-emergence / pest or weed control at 1000 g/ha: dose 1,000 g/ha
Protocol: as §1

Setaria faberi (SETFA) [5] = assay: as above; details: evaluated after 13 days, 100=total damage, 0=no damage; for Percentage damage SETFA, pre-emergence / pest or weed control at 1000 g/ha: dose 1,000 g/ha
Protocol: as §1

Solanum nigrum (SOLNI) [6] = assay: as above; details: evaluated after 13 days, 100=total damage, 0=no damage; for Percentage damage SOLNI, pre-emergence / pest or weed control at 1000 g/ha: dose 1,000 g/ha
Protocol: as §1

[7] = test system: Alopecurus myosuroides (ALOMY); assay: Post-emergence biological efficacy (percentage damage); details: evaluated after 13 days, 100=total damage, 0=no damage; for Percentage damage ALOMY, post-emergence / pest or weed control at 1000 g/ha: dose 1,000 g/ha
Protocol: as §1, with “for 8 days” for “for one day”, “grown on” for “grown”, “in a” for “in the”

[8] = test system: Amaranthus retoflexus (AMARE); assay: as above; details: evaluated after 13 days, 100=total damage, 0=no damage; for Percentage damage AMARE, post-emergence / pest or weed control at 1000 g/ha: dose 1,000 g/ha
Protocol: as §1, with “for 8 days” for “for one day”, “grown on” for “grown”, “in a” for “in the”

[9] = test system: Echinochloa crus-galli (ECHCG); assay: as above; details: evaluated after 13 days, 100=total damage, 0=no damage; for Percentage damage ECHCG, post-emergence / pest or weed control at 1000 g/ha: dose 1,000 g/ha
Protocol: as §1, with “for 8 days” for “for one day”, “grown on” for “grown”, “in a” for “in the”

[10] = test system: Ipomea hederaceae (IPOHE); assay: as above; details: evaluated after 13 days, 100=total damage, 0=no damage; for Percentage damage IPOHE, post-emergence / pest or weed control at 1000 g/ha: dose 1,000 g/ha
Protocol: as §1, with “for 8 days” for “for one day”, “grown on” for “grown”, “in a” for “in the”

Setaria faberi (SETFA) [11] = assay: as above; details: evaluated after 13 days, 100=total damage, 0=no damage; for Percentage damage SETFA, post-emergence / pest or weed control at 1000 g/ha: dose 1,000 g/ha
Protocol: as §1, with “for 8 days” for “for one day”, “grown on” for “grown”, “in a” for “in the”

Solanum nigrum (SOLNI) [12] = assay: as above; details: evaluated after 13 days, 100=total damage, 0=no damage; for Percentage damage SOLNI, post-emergence / pest or weed control at 1000 g/ha: dose 1,000 g/ha
Protocol: as §1, with “for 8 days” for “for one day”, “grown on” for “grown”, “in a” for “in the”

[13] = Alopecurus myosuroides, 312 h, dose 250 g/ha
[14] = Amaranthus retroflexus, 312 h, dose 250 g/ha
[15] = Echinochloa crus-galli, 312 h, dose 250 g/ha
[16] = Ipomoea hederacea, 312 h, dose 250 g/ha
[17] = Setaria faberi, 312 h, dose 250 g/ha
[18] = Solanum nigrum, 312 h, dose 250 g/ha

Row | Structure (SMILES) | Percentage damage ALOMY, pre-emergence [1] [%] | Percentage damage AMARE, pre-emergence [2] [%] | Percentage damage ECHCG, pre-emergence [3] [%] | Percentage damage IPOHE, pre-emergence [4] [%] | Percentage damage SETFA, pre-emergence (Setaria faberi (SETFA) [5]) [%] | Percentage damage SOLNI, pre-emergence (Solanum nigrum (SOLNI) [6]) [%] | Percentage damage ALOMY, post-emergence [7] | Percentage damage AMARE, post-emergence [8] [%] | Percentage damage ECHCG, post-emergence [9] | Percentage damage IPOHE, post-emergence [10] | Percentage damage SETFA, post-emergence (Setaria faberi (SETFA) [11]) | Percentage damage SOLNI, post-emergence (Solanum nigrum (SOLNI) [12]) [%] | pest or weed control at 1000 g/ha ([1]; Alopecurus myosuroides, 312 h) [%] | pest or weed control at 1000 g/ha ([3]; Echinochloa crus-galli, 312 h) [%] | pest or weed control at 1000 g/ha ([4]; Ipomoea hederacea, 312 h) [%] | pest or weed control at 1000 g/ha (Setaria faberi (SETFA) [5]; Setaria faberi, 312 h) [%] | pest or weed control at 1000 g/ha (Solanum nigrum (SOLNI) [6]; Solanum nigrum, 312 h) [%] | pest or weed control at 1000 g/ha ([7]; Alopecurus myosuroides, 312 h) [%] | pest or weed control at 1000 g/ha ([8]; Amaranthus retroflexus, 312 h) [%] | pest or weed control at 1000 g/ha ([9]; Echinochloa crus-galli, 312 h) [%] | also measured
1 | C/C=C/c1c(N)nc(C2CC2)nc1C(=O)OC [2-62 (E)] | 10 | 40 | 10 | 30 | 0 | 70 | 10% | 40 | 10% | 50% | 20% | 70 | – | – | – | – | – | – | – | – | –
2 | C/C=C\c1c(N)nc(C2CC2)nc1C(=O)OC [2-62 (Z)] | 20 | 90 | 10 | 100 | 20 | 100 | 10% | 70 | 10% | 100% | 30% | 70 | – | – | – | – | – | – | – | – | –
3 | C/C=C/c1c(N)nc(-c2ccc(Cl)c(OC)c2F)nc1C(=O)OC [27-62 (E)] | 90 | 50 | 90 | 90 | 80 | 80 | 90% | 100 | 100% | 90% | 100% | 100 | – | – | – | – | – | – | – | – | –
4 | C/C=C\c1c(N)nc(-c2ccc(Cl)c(OC)c2F)nc1C(=O)OC [27-62 (Z)] | 80 | 100 | 90 | 100 | 80 | 100 | 70% | 100 | 80% | 100% | 90% | 80 | – | – | – | – | – | – | – | – | –
5 | C/C=C/c1c(N)nc(-c2ccc(Cl)c(N(C)C)c2F)nc1C(=O)OC [33-62 (E)] | 70 | 100 | 90 | 0 | 80 | 80 | – | – | – | – | – | – | – | – | – | – | – | – | – | – | –
6 | C/C=C\c1c(N)nc(-c2ccc(Cl)c(N(C)C)c2F)nc1C(=O)OC [33-62 (Z)] | 30 | 70 | 30 | 20 | 30 | 60 | 80% and 60% | 100 | 80% and 70% | 40% and 30% | 80% and 70% | 80 | – | – | – | – | – | – | – | – | –
7 | C=Cc1c(N)nc(C2CC2)nc1C(=O)OC [Compound 2-61, 4-Amino-2-cyclopropyl-5-ethenyl-6-methoxycarbonyl-pyrimidine] | – | – | – | – | – | – | – | – | – | – | – | – | 40 | 80 | 100 | 20 | 100 | 40 | 100 | 60 | pest or weed control at 1000 g/ha ([2]; Amaranthus retroflexus, 312 h): 100%; pest or weed control at 1000 g/ha ([10]; Ipomoea hederacea, 312 h): 100%; pest or weed control at 1000 g/ha (Setaria faberi (SETFA) [11]; Setaria faberi, 312 h): 80%; pest or weed control at 1000 g/ha (Solanum nigrum (SOLNI) [12]; Solanum nigrum, 312 h): 100%
8 | C=C(C)c1c(N)nc(C2CC2)nc1C(=O)OC [Compound 2-64, 4-Amino-2-cyclopropyl-6-methoxycarbonyl-5-(prop-1-en-2-yl)-pyrimidine] | – | – | – | – | – | – | – | – | – | – | – | – | 20 | 0 | 100 | 20 | 80 | 10 | 60 | 40 | pest or weed control at 1000 g/ha ([2]; Amaranthus retroflexus, 312 h): 100%; pest or weed control at 1000 g/ha ([10]; Ipomoea hederacea, 312 h): 70%; pest or weed control at 1000 g/ha (Setaria faberi (SETFA) [11]; Setaria faberi, 312 h): 30%; pest or weed control at 1000 g/ha (Solanum nigrum (SOLNI) [12]; Solanum nigrum, 312 h): 80%
9 | CCC/C=C/c1c(N)nc(C2CC2)nc1C(=O)OC [Compound 2-65, 4-Amino-2-cyclopropyl-6-methoxycarbonyl-5-(pent-1-enyl)-pyrimidine] | – | – | – | – | – | – | – | – | – | – | – | – | – | – | – | – | – | – | – | – | pest or weed control at 250 g/ha [1, 13]: 0%; pest or weed control at 250 g/ha [2, 14]: 0%; pest or weed control at 250 g/ha [3, 15]: 0%; pest or weed control at 250 g/ha [4, 16]: 0%; pest or weed control at 250 g/ha (Setaria faberi (SETFA) [5]; [17]): 0%; pest or weed control at 250 g/ha (Solanum nigrum (SOLNI) [6]; [18]): 0%; pest or weed control at 250 g/ha [7, 13]: 0%; pest or weed control at 250 g/ha [8, 14]: 20%; pest or weed control at 250 g/ha [9, 15]: 0%; pest or weed control at 250 g/ha [10, 16]: 40%; pest or weed control at 250 g/ha (Setaria faberi (SETFA) [11]; [17]): 0%; pest or weed control at 250 g/ha (Solanum nigrum (SOLNI) [12]; [18]): 40%
10 | COC(=O)c1nc(C2CC2)nc(N)c1/C=C/C1CC1 [Compound 2-66, 4-Amino-2-cyclopropyl-5-(2-cyclopropyl-ethenyl)-6-methoxycarbonyl-pyrimidine] | – | – | – | – | – | – | – | – | – | – | – | – | 0 | 0 | 0 | 0 | 0 | 0 | 50 | 0 | pest or weed control at 1000 g/ha ([10]; Ipomoea hederacea, 312 h): 40%; pest or weed control at 1000 g/ha (Setaria faberi (SETFA) [11]; Setaria faberi, 312 h): 10%; pest or weed control at 1000 g/ha (Solanum nigrum (SOLNI) [12]; Solanum nigrum, 312 h): 60%
11 | COC(=O)c1nc(C2CC2)nc(N)c1C=C(C)C [Compound 2-69, 4-Amino-2-cyclopropyl-6-methoxycarbonyl-5-(2-methylprop-1-enyl)-pyrimidine] | – | – | – | – | – | – | – | – | – | – | – | – | 10 | 0 | 70 | 0 | 90 | 10 | 20 | 0 | pest or weed control at 1000 g/ha ([2]; Amaranthus retroflexus, 312 h): 100%; pest or weed control at 1000 g/ha ([10]; Ipomoea hederacea, 312 h): 70%; pest or weed control at 1000 g/ha (Setaria faberi (SETFA) [11]; Setaria faberi, 312 h): 10%; pest or weed control at 1000 g/ha (Solanum nigrum (SOLNI) [12]; Solanum nigrum, 312 h): 80%
12 | COC(=O)c1nc(-c2ccc(Cl)c(OC)c2F)nc(N)c1C1CC1 [Compound 27-58, 4-Amino-2-(4-chloro-2-fluoro-3-methoxyphenyl)-5-cyclopropyl-6-methoxycarbonyl-pyrimidine] | – | – | – | – | – | – | – | – | – | – | – | – | 0 | 0 | 10 | 0 | 0 | 10 | 90 | 20 | pest or weed control at 1000 g/ha ([10]; Ipomoea hederacea, 312 h): 60%; pest or weed control at 1000 g/ha (Setaria faberi (SETFA) [11]; Setaria faberi, 312 h): 40%; pest or weed control at 1000 g/ha (Solanum nigrum (SOLNI) [12]; Solanum nigrum, 312 h): 80%
